In this assay the target is T1, wild type E. coli MurG (Escherichia coli, UniProt P17443).
T1 construct: made in house; host or cells: E. coli BL21(DE3)pLysS, pET3a vector
Nature of the assay: Initial rate assays with purified, soluble enzyme. In kind it is biochemical. The note with it: rapid equilibrium sequential mechanism assumed; 0.08 μM purified MurG; UDP-GlcNAc as varied substrate. As to the method: The following solutions are prepared prior to the assays: 1) 177.3 μM [^14C]-UDP-GlcNAc in H2O (0.05 mCi/mL); 2) 1.5 mM UDP-GlcNAc in H2O; 3) biotinylated Lipid I analog (1b) at 0.5 μg/μL; 4) 10×reaction buffer containing 50 mM HEPES (pH 7.9) and 5 mM MgCl2. The enzyme stock is prepared by diluting the purified enzyme with TBSE to a final concentration of 0.04 μg/μL in a 0.5 mL tube and storing at 4° C. for two days prior to running the assays.
Thirty reactions are prepared by individually mixing 2 μL of 10×reaction buffer with an appropriate amount of biotinylated Lipid I analog (1b), radioactive UDP-GlcNAc, nonradioactive UDP-GlcNAc, and H2O to a final volume of 18 μl. The final concentration for the Lipid I analog (1b) are 7 μM, 10 μM, 15 μM, 30 μM, 100 μM, and for UDP-GlcNAc 11 μM, 15 μM, 20 μM, 40 μM, 100 μM, 200 μM. Reactions are initiated by adding 2 μL of the enzyme stock and are run for 4 minutes at 24° C. Reactions are stopped by adding 10 μl of 1% (w/v) SDS.
Deionized H2O is added to each tube to a final volume of approximately 250 μL and the suspension is transferred to a […] 96-well filter plate fitted to a vacuum-line fitted MultiScreen Assay System (Millipore). The resin is washed 15 times with 0.2 mL deionized H2O. […] Samples are counted immediately on a Beckman LS5000 scintillation counter.

The structures appear in SMILES notation.

T1 sequence (P17443 whole entry): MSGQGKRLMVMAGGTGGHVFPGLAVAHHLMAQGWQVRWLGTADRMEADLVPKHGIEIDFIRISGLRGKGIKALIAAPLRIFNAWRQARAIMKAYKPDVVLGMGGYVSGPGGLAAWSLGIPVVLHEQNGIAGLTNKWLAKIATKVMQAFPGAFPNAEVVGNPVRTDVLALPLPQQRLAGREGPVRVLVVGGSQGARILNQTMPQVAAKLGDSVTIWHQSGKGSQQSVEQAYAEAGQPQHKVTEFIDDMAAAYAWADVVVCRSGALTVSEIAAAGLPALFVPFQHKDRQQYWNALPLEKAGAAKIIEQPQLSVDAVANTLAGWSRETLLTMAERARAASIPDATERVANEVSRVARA

The molecule `CC(=O)N[C@H]1[C@@H](OP(=O)(O)OP(=O)(O)OC[C@H]2O[C@@H](n3ccc(=O)[nH]c3=O)[C@H](O)[C@@H]2O)O[C@H](CO)[C@@H](O)[C@@H]1O` [UDP-GLCNAC, UDP-N-acetylglucosamine] gave a KUDP-GLCNAC of 110 µM.

For the origin of these results see patent US6703213B2, “Substrate analogs for MurG, methods of making same and assays using same” (The Trustees of Princeton University, priority 1998, dated 2004).
